Source: patent US12630521B2, “Arylamides and methods of use thereof” (Genzyme Corporation, priority 2019, dated 2026)

Experiments:
[1] = target: T1, human Cystic Fibrosis Transmembrane Conductance Regulator (CFTR) harboring the ΔF508 mutation (Homo sapiens, UniProt P13569, DEL508-508); experiment: H441 cell Emax and EC50: HRP-tagged ΔF508-CFTR cell-surface luminescence assay; type: cell-based; conditions: H441 cells expressing HRP-tagged ΔF508-CFTR, 27° C. for two nights; for EC50: 15-point dose-response; for Emax: NCI-H441, % of maximum VX809 signal
T1 construct: expressed in transfected cells; host or cells: H441 carcinoma cell line (G418 selection)
T1 sequence (P13569 with tags, fused parts or gaps DEL508-508): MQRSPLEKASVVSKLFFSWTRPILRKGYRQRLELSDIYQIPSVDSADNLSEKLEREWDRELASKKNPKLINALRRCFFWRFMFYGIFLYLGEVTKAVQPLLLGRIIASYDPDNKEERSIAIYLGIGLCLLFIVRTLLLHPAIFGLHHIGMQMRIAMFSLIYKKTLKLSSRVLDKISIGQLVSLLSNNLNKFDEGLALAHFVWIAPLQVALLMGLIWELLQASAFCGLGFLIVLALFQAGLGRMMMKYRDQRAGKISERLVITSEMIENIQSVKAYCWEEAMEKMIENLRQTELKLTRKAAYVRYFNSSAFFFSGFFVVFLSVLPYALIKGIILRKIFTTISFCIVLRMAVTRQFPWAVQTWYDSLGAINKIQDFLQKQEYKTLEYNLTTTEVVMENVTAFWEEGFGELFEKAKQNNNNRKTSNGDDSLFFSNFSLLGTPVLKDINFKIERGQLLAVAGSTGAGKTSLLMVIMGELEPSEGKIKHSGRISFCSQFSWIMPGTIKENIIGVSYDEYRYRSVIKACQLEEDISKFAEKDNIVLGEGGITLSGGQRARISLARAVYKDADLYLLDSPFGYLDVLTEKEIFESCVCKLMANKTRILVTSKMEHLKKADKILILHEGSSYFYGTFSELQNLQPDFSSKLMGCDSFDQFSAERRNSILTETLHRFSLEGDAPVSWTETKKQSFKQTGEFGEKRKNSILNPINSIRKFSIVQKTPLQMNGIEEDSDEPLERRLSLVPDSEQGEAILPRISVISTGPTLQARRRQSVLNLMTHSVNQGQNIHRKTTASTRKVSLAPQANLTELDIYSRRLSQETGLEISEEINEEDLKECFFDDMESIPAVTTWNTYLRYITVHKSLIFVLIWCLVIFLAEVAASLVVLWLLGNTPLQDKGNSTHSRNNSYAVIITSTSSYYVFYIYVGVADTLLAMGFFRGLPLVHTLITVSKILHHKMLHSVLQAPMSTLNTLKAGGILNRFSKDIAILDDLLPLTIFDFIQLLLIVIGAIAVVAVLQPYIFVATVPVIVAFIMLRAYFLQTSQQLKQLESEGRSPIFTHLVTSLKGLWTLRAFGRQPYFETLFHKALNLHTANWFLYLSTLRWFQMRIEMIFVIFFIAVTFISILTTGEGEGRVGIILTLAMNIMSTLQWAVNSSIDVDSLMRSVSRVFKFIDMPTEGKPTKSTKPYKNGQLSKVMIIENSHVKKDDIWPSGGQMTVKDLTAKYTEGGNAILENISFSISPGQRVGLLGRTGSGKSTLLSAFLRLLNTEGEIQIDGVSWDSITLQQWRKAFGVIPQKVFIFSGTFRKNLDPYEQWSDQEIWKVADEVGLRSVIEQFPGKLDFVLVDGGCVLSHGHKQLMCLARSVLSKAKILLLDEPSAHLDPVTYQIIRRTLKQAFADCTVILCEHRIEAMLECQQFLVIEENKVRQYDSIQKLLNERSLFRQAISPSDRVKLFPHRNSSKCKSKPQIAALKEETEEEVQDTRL
From the text: Example 36: H441 Cell Emax and EC50
Two cell lines were used, the H441 carcinoma line and the CFHBE41o− (41o−) human bronchial epithelial line. Both cell lines expressed human Cystic Fibrosis Transmembrane Conductance Regulator (CFTR) harboring the ΔF508 mutation and with an in-frame fusion in CFTR extracellular loop 4 of Horse Radish Peroxidase (HRP) under control of the CMV promoter. In the presence of the HRP tag, ΔF508-CFTR transported to the cell surface was detectable upon addition of an HRP substrate (Luminata Forte). Both cell types were cultivated at 37° C. with CO2.
For both cell types, the medium was changed every other day unless the culture was at low % confluence. Cells were used for the assays at ˜75% confluence.
DMSO/Compound Dilutions Plate for 15-Point Dose-Response Testing
To a polypropylene (PP) 384-well plate, 15 μls DMSO was added to all wells in columns 1-22 and 24 (low Control). 15 μls of 260 μM VX809 (Lumacaftor), Selleckchem S1565, was added to column 23 wells (high Control). 15 μls of 10 mM test compound or VX809 (control) were added to wells of row A. Serial dilutions of Row A compound were performed 2×15 μls in rows A through 0 (15-point).
A PP, 384-well plate containing the appropriate cell culture medium was prepared for each assay plate with 100 μls per well. For the doxycycline-induced 41o− cells, doxycycline for both the assay plate and the medium dilution plate was added at 0.0005 mg/ml to the medium.
Both cell lines were plated for the assay at 30 μls per 384-well at 3.4×10^e5 cells per ml (˜10K cells/well). H441 cells were plated on opaque, white, Corning plate 3704. 41o− cells were plated on collagen-coated opaque, white, Corning plate 356665. For 41o− cells, doxycycline was added to the medium.
Compound Addition/Assay Incubation
Using FX (Beckman) protocol, 10 μls diluted compound or medium was added per well to the Assay Plate as: 2 μls DMSO Dilution plate well is diluted in 100 μls of the Medium Dilution Plate well, mixed, and 10 μls is transferred to the Assay Plate.
The final assay dilution series is 24.5, 12.3, 6.1, 3.1, 1.5, 0.8, 0.4, 0.2, 0.1, 0.05, 0.02, 0.01, 0.006, 0.003, 0.001 and 0 μM. The 41o− assay plates were incubated at 37° C. w/CO2, the H441 assay plates were incubated at 27° C. w/CO2, each overnight for two nights.
Assay Result Determination
After being brought to room temperature, the assay plate liquid was removed. 30 uls of Luminata Forte (Millipore ELLUF0100) was added per well and incubated at room temperature for 10 min. The plates were then read on a Topcount, protocol LumiMatti (CPS, luminescence). The data was analyzed for % of maximum, maximum VX809 signal, and EC50 using Pearl and SPEED tools.

[2] = target: T2, CFTR (ΔF508 homozygous CF-HBE cells) (Homo sapiens, UniProt P13569, DEL508-508); experiment: TECC24 AUC fold over DMSO @10 uM: CFTR-mediated transepithelial chloride transport in primary CF-HBE cells; type: cell-based; conditions: 10 μM test agent, 48 hours, forskolin-stimulated IEQ AUC divided by vehicle AUC
T2 construct: Primary human bronchial epithelial cells from a ΔF508 homozygous CF donor; host or cells: primary CF-HBE cells (ΔF508/ΔF508 donor)
T2 sequence (P13569 with tags, fused parts or gaps DEL508-508): as above
Protocol: Example 37: TECC24 AUC Fold Over DMSO @10 uM
The effects of a test agent on CFTR-mediated transepithelial chloride transport was measured using TECC24 recording analysis. Test agents were solubilized in DMSO. Solubilized test agents were mixed with incubation medium containing DMEM/F12, Ultroser G (2%; Crescent Chemical, catalog #67042), Hyclone Fetal Clone 11(2%; GE Healthcare, catalog #SH30066.02), bovine brain extract (0.25%; Lonza, catalog #CC-4098), insulin (2.5 μg/mL), IL-13 (10 ng/mL), hydrocortisone (20 nM), transferrin (2.5 μg/mL), triiodothyronine (500 nM), ethanolamine (250 nM), epinephrine (1.5 μM), phosphoethanolamine (250 nM), and retinoic acid (10 nM). Primary human bronchial epithelial cells from a ΔF508 homozygous CF donor (CF-HBE cells; from University of North Carolina Cystic Fibrosis Tissue Procurement Center), grown on Transwell HTS 24-well cell culture inserts (Costar, catalog #3378), were exposed to test agents or controls dissolved in incubation medium. The CF-HBE cells were cultured at 36.5° C. for 48 hours before TECC24 recordings were performed in the presence or absence of test agent, a positive control or vehicle (DMSO).
Following incubation, the transwell cell culture inserts containing the test agent or control-treated CF-HBE cells were loaded onto a TECC24 apparatus (TECC v7 or MTECC v2; EP Design) to record the transepithelial voltage (VT) and resistance (TEER) using 4 AgCl electrodes per well configured in current-clamp mode. The apical and basolateral bath solutions both contained (in mM) 140 NaCl, 5 KCl, 2 CaCl2, 1 MgCl2, 10 Hepes, and 10 glucose (adjusted to pH 7.4 with NaOH). To inhibit basal Na+ absorption, the ENaC inhibitor benzamil (10 μM) was added to the bath. Then, the adenylate cyclase activator, forskolin (10 μM), was added to the bath to activate CFTR. The forskolin-stimulated Cl— transport was halted by addition of CFTR inhibitor-172 (20 μM) to the bath at the end of the experiment to confirm specificity. VT and TEER recordings were digitally acquired at routine intervals using TECC or MTECC software (EP Design). VT and TEER were transformed into equivalent transepithelial Cl-current (IEQ), and the Area Under the Curve (AUC) of the IEQ time course between forskolin and CFTR inhibitor-172 addition is generated using Excel (Microsoft). Efficacy is expressed as the ratio of the test agent AUC divided by vehicle AUC. EC50s based on AUC are generated using the non-linear regression log(agonist) vs. response function in Prism software (GraphPad) with Hill Slope fixed=1.
If a test agent increased the AUC of the forskolin-stimulated IEQ relative to vehicle in CF-HBE cells, and this increase was inhibited by CFTR inhibitor-172, then the test agent was considered a CFTR corrector.

| Compound | EC50 [1] [nM] | Emax [1] [%] | TECC24 AUC fold over DMSO [2] |
| --- | --- | --- | --- |
| Cc1csc2ccc(C(=O)N[C@H](C(=O)O)C(C)(C)C)c(OCc3ccc(C(F)(F)F)cc3)c12 [Compound 35-2, (2S)-3,3-dimethyl-2-[[3-methyl-4-[[4-(trifluoromethyl)phenyl]methoxy]-benzothiophene-5-carbonyl]amino]butanoic acid] | 470 | 146 | C (“C” refers to AUC @10 μM < 4) |
| Cc1cc2ccc(C(=O)N[C@H](C(=O)O)C(C)(C)C)c(OCc3ccc(OC(F)(F)F)cc3)c2s1 [Compound 33-8, (2S)-3,3-dimethyl-2-(2-methyl-7-((4-(trifluoromethoxy)benzyl)oxy)-benzo[b]thiophene-6-carboxamido)butanoic acid] | 658 | 155 | A (“A” refers to AUC @10 μM > 6) |
| CC(C)(c1ccccc1)C(NC(=O)c1ccc2sccc2c1OCC1CCC(F)(F)CC1)C(=O)O (stereo not drawn) [Compound 32-2, 2-(4-((4,4-difluorocyclohexyl)methoxy)-benzo[b]thiophene-5-carboxamido)-3-methyl-3-phenylbutanoic acid] | 3200 | 112 | C (“C” refers to AUC @10 μM < 4) |
| CCC(C)(C)[C@H](NC(=O)c1ccc2cc(C(F)(F)F)sc2c1OCc1ccc(OC(F)(F)F)cc1)C(=O)O [Compound 33-29, (2S)-3,3-dimethyl-2-(7-((4-(trifluoromethoxy)benzyl)oxy)-2-(trifluoromethyl)-benzo[b]thiophene-6-carboxamido)pentanoic acid] | 854 | 152 | B (“B” refers to AUC @10 μM between 4-6) |
| CC(C)(C)[C@H](NC(=O)c1ccc2sccc2c1OCC1CCC(F)(F)CC1)C(=O)O [Compound 32-7, (2S)-2-(4-((4,4-difluorocyclohexyl)methoxy)-benzo[b]thiophene-5-carboxamido)-3,3-dimethylbutanoic acid] | 6890 | 127 | C (“C” refers to AUC @10 μM < 4) |
| CCC(C)(C)[C@H](NC(=O)c1ccc2cc(Cl)sc2c1OCc1ccc(OC(F)(F)F)cc1)C(=O)O [Compound 33-22, (2S)-2-(2-chloro-7-((4-(trifluoromethoxy)benzyl)oxy)-benzo[b]thiophene-6-carboxamido)-3,3-dimethylpentanoic acid] | 755 | 169 | A (“A” refers to AUC @10 μM > 6) |
| CC(C)(C)[C@H](NC(=O)c1ccc2sccc2c1OCc1ccc(C(F)(F)F)cc1)C(=O)O [Compound 32-9, (2S)-3,3-dimethyl-2-(4-((4-(trifluoromethyl)benzyl)oxy)-benzo[b]thiophene-5-carboxamido)butanoic acid] | 1080 | 193 | C (“C” refers to AUC @10 μM < 4) |
| CCC(C)(C)[C@H](NC(=O)c1ccc2sc(C(F)(F)F)cc2c1OCc1ccc(OC(F)(F)F)cc1)C(=O)O [Compound 33-35, (2S)-3,3-dimethyl-2-(4-((4-(trifluoromethoxy)benzyl)oxy)-2-(trifluoromethyl)-benzo[b]thiophene-5-carboxamido)pentanoic acid] | 678 | 199 | A (“A” refers to AUC @10 μM > 6) |
| CCC(C)(C)[C@H](NC(=O)c1ccc2sc(C)c(Cl)c2c1OCc1ccc(C(F)(F)F)cc1)C(=O)O [Compound 33-1, (2S)-2-[[3-chloro-2-methyl-4-[[4-(trifluoromethyl)phenyl]methoxy]benzothiophene-5-carbonyl]amino]-3,3-dimethyl-pentanoic acid] | 647 | 308 | A (“A” refers to AUC @10 μM > 6) |
| CC(C)(C)[C@H](NC(=O)c1ccc2sc(-c3cscn3)cc2c1OCc1ccc(C(F)(F)F)cc1)C(=O)O [Compound 33-17, (2S)-3,3-dimethyl-2-(2-(thiazol-4-yl)-4-((4-(trifluoromethyl)benzyl)oxy)-benzo[b]thiophene-5-carboxamido)butanoic acid] | 3200 | 57.7 | C (“C” refers to AUC @10 μM < 4) |
| CCC(C)(C)[C@H](NC(=O)c1ccc2sc(-c3cscn3)cc2c1OCc1ccc(C(F)(F)F)cc1)C(=O)O [Compound 33-20, (2S)-3,3-dimethyl-2-(2-(thiazol-4-yl)-4-((4-(trifluoromethyl)benzyl)oxy)-benzo[b]thiophene-5-carboxamido)pentanoic acid] | 2780 | 81.2 | C (“C” refers to AUC @10 μM < 4) |
| CC(C)c1cc2c(OCc3ccc(C(F)(F)F)cc3)c(C(=O)N[C@H](C(=O)O)C(C)(C)C)ccc2s1 [Compound 33-34, (2S)-2-(2-isopropyl-4-((4-(trifluoromethyl)benzyl)oxy)-benzo[b]thiophene-5-carboxamido)-3,3-dimethylbutanoic acid] | 637 | 238 | A (“A” refers to AUC @10 μM > 6) |
| Cc1c(Cl)sc2ccc(C(=O)N[C@H](C(=O)O)C3(C)CCC3)c(OCc3ccc(C(F)(F)F)cc3)c12 [Compound 34-2, (S)-2-(2-chloro-3-methyl-4-((4-(trifluoromethyl)benzyl)oxy)-benzo[b]thiophene-5-carboxamido)-2-(1-methylcyclobutyl)acetic acid] | 1250 | 133 | A (“A” refers to AUC @10 μM > 6) |
| CCC(C)(C)[C@H](NC(=O)c1ccc2sc(C)cc2c1OCc1ccc(OC(F)(F)F)cc1)C(=O)O [Compound 33-30, (2S)-3,3-dimethyl-2-(2-methyl-4-((4-(trifluoromethoxy)benzyl)oxy)-benzo[b]thiophene-5-carboxamido)pentanoic acid] | 102 | 263 | A (“A” refers to AUC @10 μM > 6) |
